From US20080200473A1, “Imidazo [1,2-a]Pyridine Compounds, Compositions, Uses and Methods Thereto” (Ferrer Internacional, S.A., priority 2004, published 2008)

How the values were obtained:
α1-GABAA receptor = test: Ligand-binding assay, competitive with radiolabeled flumazenil, cerebellum membranes; conditions: Affinity for α1-GABAA receptor, rat cerebellum membranes, radiolabeled flumazenil 1 nM; for % Inhibition 10^−5M: 10^-5M test compound; for % Inhibition 10^−7M: 10^-7M test compound
Method: (§1) Ligand-binding assays. Determination of the affinity of test compounds for α1- and α2-GABAA receptor.
(§2) Male Sprague-Dawley rats weighing 200-250 g at the time of experiment were used. After decapitation of the animal, the cerebellum (tissue that mostly contains α1-GABAA receptor) and spinal cord (tissue that mostly contains α2-GABAA receptor) were removed. The membranes were prepared according to the method by J. Lameh et al. (Prog. Neuro-Psychopharmacol. Biol. Psychiatry, 24, 979-991, 2000) and H. Noguchi et al. (Eur. J. Pharm., 434, 21-28, 2002). Once the tissues weighed, they were suspended in 50 mM Tris.HCl (pH 7.4), 1:40 (w/v), or sucrose 0.32 M in the case of spinal cord, homogenized and then centrifuged at 20,000 g for 10 min at 7° C. twice. The resulting pellet was resuspended under the same conditions and centrifuged again. The pellet was finally resuspended on a minimum volume and kept at −80° C. overnight. On the next day, the process was repeated until the final pellet was resuspended at a ratio of 1:10 (w/v) in the case of cerebellum and at a ratio of 1:5 (w/v) in the case of spinal cord.
(§3) Affinity was determined by competitive tests using radiolabeled flumazenil as ligand. The tests were performed according to the methods described by S. Arbilla et al. (Eur. J. Pharmacol., 130, 257-263, 1986); and Y. Wu et al. (Eur. J. Pharmacol., 278, 125-132, 1995) using 96-well microtiter plates. The membranes containing the study receptors, flumazenil (radiolabeling at a final concentration of 1 nM) and ascending concentrations of test compounds (in a total volume of 230 μL in 50 mM [ph 7.4] Tris.HCl buffer) were incubated. Simultaneously, the membranes were only incubated with the radiolabeled flumazenil (total binding, 100%) and in the presence of an elevated concentration of unradiolabeled flumazenil (non-specific binding, % estimation of radiolabeled ligand). The reactions started on adding the radiolabeled ligand followed by incubation for 60 minutes at 4° C. At the end of the incubation period, 200 μL of reaction were transferred to a multiscreen plate (Millipore) and filtered using a vacuum manifold and then washed three times with cold test buffer. The multiscreen plates were equipped with a GF/B filter that retained the membranes containing the receptors and the radiolabeled ligand which has been bound to the receptors. After washing, the plates were left till dry. Once dried, scintillation liquid was added and left under stirring overnight. The next day the plates were counted using a Perkin-Elmer Microbeta scintillation counter.
(§4) For analysis of the results the percentage of specific binding for every concentration of test compound was calculated as follows:
(§5) % specific binding=(X−N/T−N)×100
(§6) where, X: amount of bound ligand for every concentration of compound. T: total binding, maximum amount bound to the radiolabeled ligand. N: non-specific binding, amount of radiolabeled ligand bound in a non-specific way irrespective of the receptor used.
(§7) Every concentrations of compound were tested in triplicate and their mean values were used to determine the experimental values of % specific binding versus the concentration of compound. Affinity data are expressed as % inhibition at 10^-5M and 10^-7M concentrations.

mice = test: In vivo predictive sedation-hypnosis test (inhibition of traveled distance); design: species or system mouse; conditions: male CD1 mice; single equimolecular intraperitoneal doses; traveled distance over 30 min after dosing (first 5 min discarded) versus control
Method: In vivo determination of predictive sedative-hypnotic action.
The in vivo effects of these compounds were assessed by a predictive sedation-hypnosis test in mice (D. J. Sanger et al., Eur. J. Pharmacol., 313, 35-42, 1996; and G. Griebel et al., Psychopharmacology, 146, 205-213, 1999).
Groups of 5-8 male CD1 mice, weighing 22-26 g at the time of test, were used. The test compounds were administered in single equimolecular intraperitoneal doses, suspended in 0.25% agar with one drop of Tween in a volume of 10 mL/kg. Control animals received the vehicle alone. Using a Smart System (Panlab, S. L., Spain) the traveled distance in cm is recorded for each mouse at 5-min intervals during a period of 30 minutes after dosing. The inhibition percentage of traveled distance of treated animals versus control animals (the first 5 min were discarded) was calculated.

α2-GABAA receptor = test: Ligand-binding assay, competitive with radiolabeled flumazenil, spinal cord membranes; conditions: Affinity for α2-GABAA receptor, rat spinal cord membranes, radiolabeled flumazenil 1 nM; for % Inhibition 10^−5M: 10^-5M test compound; for % Inhibition 10^−7M: 10^-7M test compound
Method: as §1, §2, §3, §4, §5, §6, §7

Structure (SMILES)	% Inhibition 10^−5M (α1-GABAA receptor) [%]	% Inhibition 10^−7M (α1-GABAA receptor) [%]	% Inhibition Motor Activity (mice) [%]	% Inhibition 10^−5M (α2-GABAA receptor) [%]	% Inhibition 10^−7M (α2-GABAA receptor) [%]
Cc1ccc(-c2nc3ccc(C)cn3c2CNC(=O)c2ccc3ccccc3n2)cc1 [Example 19, Quinoline-2-carboxylic acid (6-methyl-2-p-tolyl-imidazo[1,2-a]pyridin-3-ylmethyl)-amide]	95.5	0.0	47.98	47.6	0.0
Cc1ccc(-c2nc3ccc(C)cn3c2CNC(=O)c2ncc(F)cc2F)cc1 [Example 20, 3,5-Difluoro-pyridine-2-carboxylic acid (6-methyl-2-p-tolyl-imidazo[1,2-a]pyridin-3-ylmethyl)-amide]	99.8	65.9	91.99	95.2	0.0
COc1ccc2nc(C(=O)NCc3c(-c4ccc(C)cc4)nc4ccc(C)cn34)sc2c1 [Example 21, 6-Methoxy-benzothiazole-2-carboxylic acid (6-methyl-2-p-tolyl-imidazo[1,2-a]pyridin-3-ylmethyl)-amide]	67.9	3.5	57.14	25.6	0.0
Cc1ccc(-c2nc3ccc(C)cn3c2CN(C)C(=O)c2ccc(N(C)C)cc2)cc1 [Example 22, 4-Dimethylamino-N-methyl-N-(6-methyl-2-p-tolyl-imidazo[1,2-a]pyridin-3-ylmethyl)-benzamide]	84.8	62.3	89.45	9.4	0.0
Cc1ccc(-c2nc3ccc(C)cn3c2CN(C)C(=O)C2CC2)cc1 [Example 24, Cyclopropanecarboxylic acid methyl-(6-methyl-2-p-tolyl-imidazo[1,2-a]pyridin-3-ylmethyl)-amide]	99.8	75.2	80.71	14.4	0.0
COc1ccc(C(=O)N(C)Cc2c(-c3ccc(C)cc3)nc3ccc(C)cn23)cc1 [Example 25, 4-Methoxy-N-methyl-N-(6-methyl-2-p-tolyl-imidazo[1,2-a]pyridin-3-ylmethyl)-benzamide]	91.9	26.6	67.34	0.0	0.0
Cc1ccc(-c2nc3ccc(C)cn3c2CN(C)C(=O)c2ccccn2)cc1 [Example 28, Pyridine-2-carboxylic acid methyl-(6-methyl-2-p-tolyl-imidazo[1,2-a]pyridin-3-ylmethyl)-amide]	99.8	73.3	55.64	93.9	14.3
Cc1ccc(-c2nc3ccc(C)cn3c2CN(C)C(=O)c2cccs2)cc1 [Example 29, Thiophene-2-carboxylic acid methyl-(6-methyl-2-p-tolyl-imidazo[1,2-a]pyridin-3-ylmethyl)-amide]	99.7	84.9	93.98	90.2	25.0
Cc1ccc(C(=O)N(C)Cc2c(-c3ccc(C)cc3)nc3ccc(C)cn23)cc1 [Example 30, 4,N-Dimethyl-N-(6-methyl-2-p-tolyl-imidazo[1,2-a]pyridin-3-ylmethyl)-benzamide]	90.5	4.6	44.36	33.9	0.0
Cc1ccc(-c2nc3ccc(C)cn3c2CN(C)C(=O)c2ccc([N+](=O)[O-])cc2)cc1 [Example 31, N-Methyl-N-(6-methyl-2-p-tolyl-imidazo[1,2-a]pyridin-3-ylmethyl)-4-nitro-benzamide]	82.5	1.2	69.67	38.8	0.0
Cc1ccc(-c2nc3ccc(C)cn3c2CN(C)C(=O)c2ccc([N+](=O)[O-])o2)cc1 [Example 32, 5-Nitro-furan-2-carboxylic acid methyl-(6-methyl-2-p-tolyl-imidazo[1,2-a]pyridin-3-ylmethyl)-amide]	98.0	14.5	92.66	77.5	0.0
Cc1ccc(-c2nc3ccc(C)cn3c2CN(C)C(=O)c2ncc(F)cc2F)cc1 [Example 33, 3,5-Difluoro-pyridine-2-carboxylic acid methyl-(6-methyl-2-p-tolyl-imidazo[1,2-a]pyridin-3-ylmethyl)-amide]	98.4	37.3	35.02	74.0	0.0
Cc1ccc(-c2nc3ccc(C)cn3c2CN(C)C(=O)c2ccnc(Cl)c2)cc1 [Example 34, 2-Chloro-N-methyl-N-(6-methyl-2-p-tolyl-imidazo[1,2-a]pyridin-3-ylmethyl)-isonicotinamide]	98.8	39.6	92.98	85.0	0.0
Cc1ccc(-c2nc3ccc(C)cn3c2CN(C)C(=O)c2ccc3ccccc3n2)cc1 [Example 35, Quinoline-2-carboxylic acid methyl-(6-methyl-2-p-tolyl-imidazo[1,2-a]pyridin-3-ylmethyl)-amide]	67.1	31.8	33.19	3.7	0.0
C#CCN(Cc1c(-c2ccc(C)cc2)nc2ccc(C)cn12)C(=O)C1CC1 [Example 42, Cyclopropanecarboxylic acid (6-methyl-2-p-tolyl-imidazo[1,2-a]pyridin-3-ylmethyl)-prop-2-ynyl-amide]	92.7	12.4	40.35	49.7	0.0
Cc1ccc(-c2nc3ccc(C)cn3c2CNC(=O)C2CCC2)cc1 [Example 58, Cyclobutanecarboxylic acid (6-methyl-2-p-tolyl-imidazo[1,2-a]pyridin-3-ylmethyl)-amide]	98.8	6.5	94.25	78.6	9.2
Cc1ccc(-c2nc3ccc(C)cn3c2CNC(=O)c2cnc(C)cn2)cc1 [Example 61, 5-Methyl-pyrazine-2-carboxylic acid (6-methyl-2-p-tolyl-imidazo[1,2-a]pyridin-3-ylmethyl)-amide]	100.0	85.4	90.55	98.5	48.3
